Measurements as given in BindingDB's records for PubMed 7473144 (Gliatech, 1995).

Target: Hrh3 protein (Rattus norvegicus, UniProt Q5PPG3)
Sequence (Q5PPG3 whole entry): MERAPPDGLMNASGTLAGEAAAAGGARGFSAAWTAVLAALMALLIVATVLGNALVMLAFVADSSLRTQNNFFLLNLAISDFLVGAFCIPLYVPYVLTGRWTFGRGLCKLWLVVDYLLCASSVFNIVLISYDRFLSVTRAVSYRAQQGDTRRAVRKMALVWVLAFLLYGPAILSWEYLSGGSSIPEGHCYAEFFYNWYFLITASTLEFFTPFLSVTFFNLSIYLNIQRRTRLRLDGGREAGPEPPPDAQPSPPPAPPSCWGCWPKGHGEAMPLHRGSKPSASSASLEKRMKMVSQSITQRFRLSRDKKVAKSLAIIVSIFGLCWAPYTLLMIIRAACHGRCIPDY

## S=C(NC1CCCCC1)N1CCC(c2cnc[nH]2)CC1
  Ki: 1.8 nM
